Measurements: the NIST ThermoML archive (doi:10.1016/j.jct.2007.05.004)

Test: xn = mol fraction of the nth substance listed
Details: 101 kPa, Liquid

CCOC(C)=O [ethyl acetate] + CO
Details | mass density, 293.15 K [kg/m3] | mass density, 298.15 K [kg/m3] | mass density, 303.15 K [kg/m3] | viscosity, 293.15 K [mPa·s] | viscosity, 298.15 K [mPa·s] | viscosity, 303.15 K [mPa·s]
x2 = 0 | 900.52 | 894.43 | 888.3 | 0.452 | 0.426 | 0.403
x2 = 0.0474 | 898.51 | 892.43 | 886.3 | 0.447 | 0.422 | 0.4
x2 = 0.097 | 896.18 | 890.12 | 884.01 | 0.443 | 0.418 | 0.396
x2 = 0.1956 | 891.18 | 885.16 | 879.09 | 0.442 | 0.417 | 0.396
x2 = 0.2999 | 884.93 | 878.99 | 872.98 | 0.442 | 0.419 | 0.398
x2 = 0.3963 | 878.26 | 872.38 | 866.46 | 0.447 | 0.421 | 0.398
x2 = 0.4962 | 870.14 | 864.36 | 858.55 | 0.453 | 0.427 | 0.403
x2 = 0.5963 | 860.45 | 854.82 | 849.15 | 0.463 | 0.435 | 0.41
x2 = 0.6998 | 848.26 | 842.81 | 837.3 | 0.481 | 0.451 | 0.425
x2 = 0.7992 | 833.88 | 828.62 | 823.31 | 0.504 | 0.472 | 0.443
x2 = 0.9005 | 815.52 | 810.5 | 805.45 | 0.536 | 0.501 | 0.469

COC(C)=O [methyl ethanoate] + CCO
Details | mass density, 293.15 K [kg/m3] | mass density, 298.15 K [kg/m3] | mass density, 303.15 K [kg/m3] | viscosity, 293.15 K [mPa·s] | viscosity, 298.15 K [mPa·s] | viscosity, 303.15 K [mPa·s]
x2 = 0 | 933.56 | 926.98 | 920.34 | 0.386 | 0.367 | 0.348
x2 = 0.0493 | 927.83 | 921.31 | 914.73 | 0.383 | 0.363 | 0.345
x2 = 0.0987 | 922 | 915.54 | 909.02 | 0.389 | 0.365 | 0.347
x2 = 0.1998 | 909.85 | 903.54 | 897.15 | 0.398 | 0.377 | 0.359
x2 = 0.3006 | 897.16 | 891 | 884.79 | 0.419 | 0.395 | 0.374
x2 = 0.3973 | 884.52 | 878.56 | 872.54 | 0.444 | 0.418 | 0.394
x2 = 0.4863 | 872.35 | 866.59 | 860.77 | 0.477 | 0.449 | 0.422
x2 = 0.6031 | 855.48 | 849.99 | 844.45 | 0.54 | 0.505 | 0.473
x2 = 0.6972 | 841.15 | 835.91 | 830.62 | 0.615 | 0.572 | 0.537
x2 = 0.7986 | 824.84 | 819.89 | 814.9 | 0.735 | 0.684 | 0.64
x2 = 0.9009 | 807.47 | 802.85 | 798.18 | 0.903 | 0.838 | 0.768
x2 = 0.951 | 798.76 | 794.3 | 789.81 | 1.032 | 0.945 | 0.868

CO [methanol] + CCOC(C)=O
x1 = 1
Details | mass density [kg/m3] | viscosity [mPa·s]
293.15 K | 791.9 | 0.585
298.15 K | 787.2 | 0.545
303.15 K | 782.48 | 0.508
